These results are taken from patent publication US12384818B2, “Cyclin-dependent kinase 5 (CDK5) inhibitory peptides” (Massachusetts Institute of Technology, priority 2017, dated 2025).

Ends that are not written are not given here. Peptide text beside a SMILES is read from it. * marks the point of attachment. FITC = O=C1OC2(c3ccc(O)cc3Oc3cc(O)ccc32)c2ccc(NC(=S)*)cc21; Ahx = NCCCCCC(=O)O

Data set [1] concerns Human iPSC-derived neural progenitor cells. To be noted: 1 μM, 2 hr; FIG. 9B.
Data set [2] can be described thus: Blood brain barrier penetration in mice, targeted mass spectrometry of brain lysate. In kind it is in vivo. To be noted: 24 hours; for #Spec (number of spectra) / Area (peak area): tryptic fragment in brain lysate, mice 40 mg/kg i.p. The protocol: Wild type mice were intraperitoneally injected with a single dose (40 mg/kg) of Cdk5i, and were sacrificed 24 hours after the injection. Prior to extracting the brain, mice were transcardially perfused with 40 mL of cold phospho-buffered saline (PBS) to ensure clearance of any Cdk5i circulating in the blood that may not have crossed the blood brain barrier. After the perfusion, the brains were dissected into two hemispheres and one hemisphere was lysed with cold lysis buffer (RIPA) to extract total protein. Total protein was then briefly run on a 12% acrylamide gel to separate large proteins and then digested with a trypsin enzyme and subjected to targeted mass spectrometry analysis using Cdk5i peptide sequence of SEQ ID NO. 3 linked to a GGG spacer/linker and FITC (Cdk5i sequence: FITC-GGG-SEQ ID NO. 3).
A substantial portion (11 amino acids out of 12) of the Cdk5i sequence including the conjugated tat protein sequence were detected using mass spectrometry based on the number of spectra and peak area. Using targeted mass spectrometry, brain lysate from mice injected with Cdk5i show an enrichment for Cdk5i based on # of spectra and peak area (2nd row of data in Table 1).

In the case of `CC[C@H](C)[C@H](NC(=O)CNC(=O)[C@H](Cc1ccccc1)NC(=O)[C@H](C)NC(=O)[C@H](CCCNC(=N)N)NC(=O)[C@H](C)NC(=O)CCCCCNC(=S)Nc1ccc2c(c1)C(=O)OC21c2ccc(O)cc2Oc2cc(O)ccc21)C(=O)N1CCC[C@H]1C(=O)N[C@H](C(=O)N[C@@H](CCCNC(=N)N)C(=O)N[C@@H](CS)C(=O)N[C@@H](Cc1ccc(O)cc1)C(=O)N[C@@H](CO)C(=O)N[C@@H](Cc1ccc(O)cc1)C(=O)NCC(=O)N[C@@H](CCCNC(=N)N)C(=O)N[C@@H](CCCCN)C(=O)N[C@@H](CCCCN)C(=O)N[C@@H](CCCNC(=N)N)C(=O)N[C@@H](CCCNC(=N)N)C(=O)N[C@@H](CCC(N)=O)C(=O)N[C@@H](CCCNC(=N)N)C(=O)N[C@@H](CCCNC(=N)N)C(=O)N[C@@H](CCCNC(=N)N)C(=O)O)C(C)C` [FITC-Ahx-Cdk5i-Tat] ({FITC-Ahx}-ARAFGIPVRCYSYGRKKRRQRRR-OH), the “penetration of plasma membrane (intracellular FITC signals)” value in data set [1] is reported as “able to penetrate plasma membrane”.
In the case of ARAFGIPVR, in data set [2], the “#Spec (number of spectra)” value came out at 12 and the “Area (peak area)” value was found to be 3.83E+07.
Regarding ARAFGIPVRCYS [CDK5i], the “portion of the Cdk5i sequence detected in brain” value in data set [2] (wild type mice, single dose 40 mg/kg intraperitoneally, perfused brain, mass spectrometry) is reported as 11 amino acids out of 12. Moreover, in data set [2] (wild type mice, single dose 40 mg/kg intraperitoneally, targeted mass spectrometry), the “blood brain barrier penetration / enrichment in brain lysate” value was “enrichment”.
With “R.AFGIPVRCYSYGR.K: tryptic fragment of Cdk5i-Tat detected in mouse brain lysate by mass spectrometry”, in data set [2], the “#Spec (number of spectra)” value amounted to 22 and the “Area (peak area)” value amounted to 8.42E+08.
For the molecule “R.CYSYGRK.K: tryptic fragment of Cdk5i-Tat detected in mouse brain lysate by mass spectrometry”, in data set [2], the “#Spec (number of spectra)” value stood at 12 and the “Area (peak area)” value was 6.13E+08.
